Test results from patent publication US12521564B2, “Method and apparatus for oncomagnetic treatment” (THE METHODIST HOSPITAL, priority 2020, dated 2026).
“Also recorded” adds a separate entry of the source.

Columns and labels:
[1] = test system: DIPG cells; experiment: O2 consumption of primary DIPG cells under OMF stimulation cycles; format: cell-based, human; settings: 5 μM bongkrekic acid
Source text: Before OMF stimulation the O2 consumption rate is ≈40 pMol O2 sec^−1 million cells^−1, similar to that seen in Chinese hamster ovary cells (100%). During the first five minutes of OMF stimulation cycle, respiration rate falls by a third, and during the first fifteen-minute pause this respiration rate remains at 65% of the initial rate. During the second stimulation cycle, respiration falls to only 45% of the control rate. When the cycle ends the rate rises to 58%, but over the 15-minute pause the flux slows down. During the third stimulation cycle, O2 consumption is held at half the initial rate, but when stimulation ceases a rapid increase in respiration is observed, which increases over the first 10 min and then begins to slow.
The large increase in mitochondrial electron flux that is observed at the end of the third cycle is consistent with a relatively homogenous population of cells, all undergoing MPT simultaneously. To test if this is the correct interpretation of the data, the experiment was rerun, but this time in the presence of 5 μM bongkrekic acid (FIG. 20B). Blocking the ANT with bongkrekic acid slows the steady state mitochondrial electron flux to 55% of that seen in its absence (both rates arc normalized to 100% in each panel for case of interpretation). […]
O2 consumption of cells was measured in PBS, 10 mM glucose, 37° C. […]

[2] = test system: high-grade meningioma cells; experiment: O2 consumption of primary high-grade meningioma cells under OMF stimulation cycles; format: cell-based, human; settings: cells pretreated with bongkrekic acid
Source text: FIG. 21 follows the format of FIG. 20, but this time primary high-grade meningioma cells were used, showing that OMF stimulation cycles cause MPT. In these cells stimulation causes a 75% drop in the electron flux, and after the end of the first cycle, the cells maintain only half their initial rate (FIG. 21A). During the second cycle of stimulation mitochondrial respiration is completely halted, and as soon as the stimulation stops there is a burst of O2 uptake ≥6 times the initial steady state level. This rate drops in a first order manner.
Oxygen electrode data collection: A thermostatically controlled (37° C.), water-jacketed, glass-walled, Clark-type O2 electrode was used throughout. […] There was a degree of crosstalk between to stirring bar of the O2-electrode chamber and the oncoscillator; this interaction manifests itself as jumps or drops in the apparent O2 concentrations at the beginning or the end of OMF stimulation.
The homogenates were grown in DMEM with 20% FBS, 1U GlutaMax™, sodium pyruvate (1 mM), penicillin (100 U/ml), and streptomycin ([…]).
O2 consumption of cells was measured in PBS, 10 mM glucose, 37° C. 2 μM carbonyl cyanide trifluoromethoxyphenylhydrazone.

[3] = test system: rat liver mitochondria (RLM); experiment: O2 electrode trace of rat liver mitochondria metabolizing succinate under OMF stimulation; format: biochemical; settings: 5 μM bongkrekic acid, RLM metabolizing 5 mM succinate
Procedure: FIG. 18A illustrates an apparatus 1800 used to perform the procedures outlined above. The apparatus 1800 includes oncoscillator component and generates OMF by rotating an N52 permanent Neodymium rare earth magnet. The oncoscillator assembly is held by a microphone stand, placed next to the water jacketed O2 electrode with a 5 mm air gap, halting vibration transfer. The oncoscillator is positioned so that the center of 1 ml media chamber is exposed to a magnetic field of ≈8 mT. The rotation of the oncoscillator magnet has a small artifactual effect on the O2 electrode stirrer bar giving rise to an apparent drop or rise in O2 levels.
The effect of OMF on energized rat liver mitochondria (RLM) was examined. […] After the addition of succinate the slow ‘State 4’ consumption of O2 (≈10 e^−s^−1) that is typical of RLM oxidizing succinate in the absence of ADP (‘State 3’) or uncouplers is observed. In state 4 the electron flux from succinate dehydrogenase, the bc1 complex and cytochrome c oxidase is controlled by the presence of a large membrane potential (ΔΨ) and ΔpH, estimated to be […] and 11 mV, respectively, under similar conditions.
When OMF stimulation is initiated, respiration is completely halted for the whole 5-min OMF stimulation period. […] After this second stimulation regime ended, respiration restarted at the rate recorded prior to the stimulation cycle. […]

[4] = test system: GBM cells; experiment: Surviving cell count after OMF stimulation in presence of drugs; format: cell-based, human
Source text: Histograms of the percentage of cells plotted against the normalized fluorescence intensity (ratio of intensity to the width of the forward scatter) measured by flow cytometry of H2DCF-stained GBM (U87) and normal astroglial (SVGp12) cells reveal nearly a two-fold increase in GBM cells due to OMF, but a ˜50% decrease in astroglial cells (FIG. 44). To test whether cell death is caused by the OMF-induced increase in ROS, a potent antioxidant Trolox was used to counteract it, while measuring the decrease in GBM cell count due to 4 h exposure to OMF. Conversely, it also was asked whether OMF potentiates the cell killing effect of a known ROS inducer, benzylamine. […] Magnetically influenced RPM plays a role in ubiquitously expressed flavoproteins called cryptochromes, which can also generate ROS when perturbed by magnetic fields. Cryptochrome agonists have been recently shown to inhibit cancer stem cell proliferation in GBM. This alternative possibility for generation of ROS by OMF was tested by counting surviving cells after two 4 h sessions of OMF stimulation over 24 h in the presence and absence of a cryptochrome antagonist, KS15. […] According to a certain setup, cells grown in 96-well cell culture plates were OMF stimulated, sham stimulated or unstimulated for 4 h inside humidified CO2 incubator. Paraformaldehyde (4% w/v in PBS) was used for fixation and DAPI was used for staining nuclei. […] Live and dead cell images were captured at 10× magnification on a Nikon Eclipse TE2000-E microscope and analyzed with NIS-Element program or a Carl Zeiss Axio Observer microscope with an onstage incubation chamber having a humidified 5% CO2 supply. […] […] To do this surviving cells were counted after two 4 h sessions of OMF stimulation over 24 h in the presence and absence of a cryptochrome antagonist, KS15.

[5] = test system: GBM cells; settings: FCCP added after 2-3 OMF stimulation cycles
Procedure: In cultured GBM156 cells 10-minute stimulation/pause cycles were used to provoke a MPT response.
Oxygen electrode data collection: A thermostatically controlled (37° C.), water-jacketed, glass-walled, Clark-type O2 electrode was used throughout. […] The oncoscillator was attached to the end of a microphone stand and was held perpendicular to the outer glass wall of the electrode, so that there was an air gap of ≈5 mm between the two devices. There was a degree of crosstalk between to stirring bar of the O2-electrode chamber and the oncoscillator; this interaction manifests itself as jumps or drops in the apparent O2 concentrations at the beginning or the end of OMF stimulation. […] The stirrer velocity was therefore optimized to negate the interaction with the oncoscillator.
Tumor culture preparations: GBM and meningioma tumors were taken at the time of (first) excision and given the laboratory ID. They were washed in PBS, chopped with a scalpel and homogenized in a BeadBug™ homogenizer using 1.5 mm Zirconium beads, in an equal volume of PBS. […] The homogenates were grown in DMEM with 20% FBS, 1U GlutaMax™, sodium pyruvate (1 mM), penicillin (100 U/ml), and streptomycin (100 mg/ml). […]
Cells were grown to confluency, counted, harvested using trypsin, washed in ice-cold PBS and stored on ice at 8×10^9 cells/ml. O2 consumption of cells was measured in PBS, 10 mM glucose, 37° C. […]

CO[C@H](C/C=C\C=C\CC/C=C/C[C@H](C)/C=C/C(=C\C(=O)O)CC(=O)O)/C(C)=C\C=C(/C)C(=O)O [bongkrekic acid]
steady state mitochondrial electron flux, % of that seen in absence of bongkrekic acid ([1]; 2×10^6/ml DIPG cells in glucose supplemented PBS): 55%
OMF-induced permeability transition (increase in respiration rate) ([1]; repeated OMF stimulation cycles): no increase in rate indicative of the permeability transition; also recorded: blocking the permeability
OMF-induced increase in O2 uptake rate (MPT) [2]: abolished; also recorded: blocks the permeability
mitochondrial 'State 4' flux [3]: inhibits
oncoscillator-induced permeability transition ([3]; OMF stimulation): completely abolishes

CCO[C@H](Cc1cccc(/C(C)=N/OCc2ccc(Br)cc2)c1)C(=O)O [KS15]
effect on the decrease in cell count produced by OMF ([4]; two 4 h sessions of OMF stimulation over 24 h, presence vs absence of KS15): significant partial attenuation

N#CC(C#N)=NNc1ccc(OC(F)(F)F)cc1 [FCCP, carbonyl cyanide-p-trifluoromethoxyphenylhydrazone]
O2 consumption after addition of FCCP [5]: did not lead to an increase in O2 consumption

Cc1c(C)c2c(c(C)c1O)CCC(C)(C(=O)O)O2 (stereo not drawn) [Trolox]
counteraction of the decrease in GBM cell count due to OMF-induced ROS ([4]; 4 h exposure to OMF, antioxidant Trolox): predictions are confirmed

NCc1ccccc1 [benzylamine]
potentiation by OMF of the cell killing effect of the ROS inducer ([4]; 4 h exposure to OMF, benzylamine): predictions are confirmed
